From patent US11542273B2, “Amide compound having bet proteolysis-inducing action and medicinal application thereof” (MITSUBISHI TANABE PHARMA CORPORATION, priority 2018, dated 2023) come the findings set out here.

Experiment [1] has as its system human prostate cancer LNCaP cells. Kind of experiment: Cytotoxic action on cancer cells (WST-8, 96 hr). Format: cell-based. The following applies: Homo sapiens, LNCaP, 96 h, read-out: LNCaP cytotoxic activity: IC50. A digest of the protocol:
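Seed cells in 10% FBS/RPMI1640 and culture overnight (37° C, 5% CO2). Add test compound (DMSO stock diluted in medium). Culture further, then read viable cell number by WST-8. Derive IC50 from the straight line between survival points enclosing 50%.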

The target in the next experiment is BRD4 protein (Homo sapiens (Human), UniProt O60885). The experiment can be described thus: BRD4 protein degradation inducing action in cancer cells (immunofluorescence, Operetta). Format: cell-based. The following applies: LNCaP cells, 6 hr treatment, fluorescence intensity. In short, it runs like this:
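LNCaP prostate cancer cells in 10% FBS/RPMI1640 were exposed to compound for 6 hr at 37° C, then fixed, permeabilized and immunostained for BRD4 with Alexa Fluor 488 or 546 secondary antibodies plus Hoechst nuclear stain. Fluorescence was read by high-content imaging; DC50 is the concentration giving 50% of untreated signal, interpolated linearly between bracketing points.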

SMILES strings stand for the structures.

In general, IC50 refers to the concentration that inhibits the measured activity by half. As a reminder, the DC50 is the midpoint of the concentration-degradation curve. High values mean degradation only at high concentration, low ones degradation at low concentration. Take `COC(=O)C[C@@H]1N=C(c2ccc(-c3ccc(C(=O)N[C@H](C(=O)N4C[C@H](O)C[C@H]4C(=O)NCc4ccc(-c5scnc5C)cc4)C(C)(C)C)cc3F)cc2)c2c(sc(C)c2C)-n2c(C)nnc21` [Example 189, methyl {(6S)-4-[2′-fluoro-4′-({(2S)-1-[(2S,4R)-4-hydroxy-2-({[4-(4-methyl-1,3-thiazol-5-yl)phenyl]methyl}carbamoyl)pyrrolidin-1-yl]-3,3-dimethyl-1-oxobutan-2-yl}carbamoyl) [1,1′-biphenyl]-4-yl]-2,3,9-trimethyl-6H-thieno [3,2-f][1,2,4]triazolo [4,3-a][1,4]diazepin-6-yl}acetate]: the IC50 in experiment [1] was 0.17 nM. The compound also returned a DC50 on BRD4 protein of 0.44 nM.
Regarding `COC(=O)C[C@@H]1N=C(c2ccc(-c3ccc(C(=O)N[C@H](C(=O)N4C[C@H](O)C[C@H]4C(=O)NCc4ccc(-c5scnc5C)cc4)C(C)(C)C)c(Cl)c3)cc2)c2c(sc(C)c2C)-n2c(C)nnc21` [Example 190, methyl {(6S)-4-[3′-chloro-4′-({(2S)-1-[(2S,4R)-4-hydroxy-2-({[4-(4-methyl-1,3-thiazol-5-yl)phenyl]methyl}carbamoyl)pyrrolidin-1-yl]-3,3-dimethyl-1-oxobutan-2-yl}carbamoyl)[1,1′-biphenyl]-4-yl]-2,3,9-trimethyl-6H-thieno[3,2-f][1,2,4]triazolo[4,3-a][1,4]diazepin-6-yl}acetate], in experiment [1], the IC50 turned out to be 0.13 nM. The half-maximal degradation concentration (DC50) on BRD4 protein came out at 0.17 nM.
For `Cc1ncsc1-c1ccc([C@H](C)NC(=O)[C@@H]2C[C@@H](O)CN2C(=O)[C@@H](NC(=O)CCCCc2ccc(C3=N[C@@H](C)c4nnc(C)n4-c4sc(C)c(C)c43)cc2)C(C)(C)C)cc1` [Example 192, (2S,4R)-1-{(2S)-3,3-dimethyl-2-[(5-{4-[(6S)-2,3,6,9-tetramethyl-6H-thieno[3,2-f][1,2,4]triazolo[4,3-a] [1,4]diazepin-4-yl]phenyl}pentanoyl)amino]butanoyl}-4-hydroxy-N-{(1S)-1-[4-(4-methyl-1,3-thiazol-5-yl)phenyl]ethyl}pyrrolidine-2-carboxamide], in that order: 0.46 nM and 0.77 nM.
`Cc1ncsc1-c1ccc([C@H](C)NC(=O)[C@@H]2C[C@@H](O)CN2C(=O)[C@@H](NC(=O)CCCCCc2ccc(C3=N[C@@H](C)c4nnc(C)n4-c4sc(C)c(C)c43)cc2)C(C)(C)C)cc1` [Example 193, (2S,4R)-1-{(2S)-3,3-dimethyl-2-[(6-{4-[(6S)-2,3,6,9-tetramethyl-6H-thieno[3,2-f][1,2,4]triazolo[4,3-a] [1,4]diazepin-4-yl]phenyl}hexanoyl)amino]butanoyl}-4-hydroxy-N-{(1S)-1-[4-(4-methyl-1,3-thiazol-5-yl)phenyl]ethyl}pyrrolidine-2-carboxamide]: the 50% inhibitory concentration (IC50) in experiment [1] amounted to 0.3 nM. The compound also returned a half-maximal degradation concentration (DC50) on BRD4 protein of 0.62 nM.
For `Cc1ncsc1-c1ccc([C@H](C)NC(=O)[C@@H]2C[C@@H](O)CN2C(=O)[C@@H](NC(=O)CCCCCCc2ccc(C3=N[C@@H](C)c4nnc(C)n4-c4sc(C)c(C)c43)cc2)C(C)(C)C)cc1` [Example 194, (2S,4R)-1-{(2S)-3,3-dimethyl-2-[(7-{4-[(6S)-2,3,6,9-tetramethyl-6H-thieno[3,2-f][1,2,4]triazolo[4,3-a] [1,4]diazepin-4-yl]phenyl}heptanoyl)amino]butanoyl}-4-hydroxy-N-{(1S)-1-[4-(4-methyl-1,3-thiazol-5-yl)phenyl]ethyl}pyrrolidine-2-carboxamide], in that order: 0.17 nM and 0.23 nM.
For `Cc1ncsc1-c1ccc([C@H](C)NC(=O)[C@@H]2C[C@@H](O)CN2C(=O)[C@@H](NC(=O)C#Cc2ccc(C3=N[C@@H](C)c4nnc(C)n4-c4sc(C)c(C)c43)cc2)C(C)(C)C)cc1` [Example 198, (2S,4R)-1-{(2S)-3,3-dimethyl-2-[(3-{4-[(6S)-2,3,6,9-tetramethyl-6H-thieno[3,2-f][1,2,4]triazolo[4,3-a][1,4]diazepin-4-yl]phenyl}prop-2-ynoyl)amino]butanoyl}-4-hydroxy-N-{(1S)-1-[4-(4-methyl-1,3-thiazol-5-yl)phenyl]ethyl}pyrrolidine-2-carboxamide], in that order: 0.061 nM and 0.058 nM.
For `Cc1ncsc1-c1ccc([C@H](C)NC(=O)[C@@H]2C[C@@H](O)CN2C(=O)[C@@H](NC(=O)C2(OCCCc3ccc(C4=N[C@@H](C)c5nnc(C)n5-c5sc(C)c(C)c54)cc3)CC2)C(C)(C)C)cc1` [Example 199, (2S,4R)-1-[(2S)-3,3-dimethyl-2-{[1-(3-{4-[(6S)-2,3,6,9-tetramethyl-6H-thieno[3,2-f][1,2,4]triazolo[4,3-a] [1,4]diazepin-4-yl]phenyl}propoxy)cyclopropane-1-carbonyl]amino}butanoyl]-4-hydroxy-N-{(1S)-1-[4-(4-methyl-1,3-thiazol-5-yl)phenyl]ethyl}pyrrolidine-2-carboxamide], in that order: 0.64 nM and 0.55 nM.
With `Cc1ncsc1-c1ccc([C@H](C)NC(=O)[C@@H]2C[C@@H](O)CN2C(=O)[C@@H](NC(=O)c2ccc(-c3ccc(C4=N[C@@H](C)c5nnc(C)n5-c5sc6c(c54)CCC6)cc3)cc2)C(C)(C)C)cc1` [Example 200, (2S,4R)-1-[(2S)-2-({4′-[(45)-1,4-dimethyl-8,9-dihydro-4H,7H-cyclopenta[4,5]thieno[3,2-f][1,2,4]triazolo[4,3-a] [1,4]diazepin-6-yl][1,1′-biphenyl]-4-carbonyl}amino)-3,3-dimethylbutanoyl]-4-hydroxy-N-{(1S)-1-[4-(4-methyl-1,3-thiazol-5-yl)phenyl]ethyl}pyrrolidine-2-carboxamide], the half-inhibitory concentration (IC50) in experiment [1] amounted to 0.38 nM. Moreover, the 50% degradation concentration (DC50) on BRD4 protein turned out to be 0.66 nM.
For `Cc1ncsc1-c1ccc([C@H](C)NC(=O)[C@@H]2C[C@@H](O)CN2C(=O)[C@@H](NC(=O)/C=C/c2ccc(C3=N[C@@H](C)c4nnc(C)n4-c4sc(C)c(C)c43)cc2)C(C)(C)C)cc1` [Example 201, (2S,4R)-1-[(2S)-3,3-dimethyl-2-{[(2E)-3-{4-[(6S)-2,3,6,9-tetramethyl-6H-thieno[3,2-f][1,2,4]triazolo[4,3-a] [1,4]diazepin-4-yl]phenyl}prop-2-enoyl]amino}butanoyl]-4-hydroxy-N-{(1S)-1-[4-(4-methyl-1,3-thiazol-5-yl)phenyl]ethyl}pyrrolidine-2-carboxamide], in that order: 0.34 nM and 0.37 nM.
For `Cc1ncsc1-c1ccc([C@H](C)NC(=O)[C@@H]2C[C@@H](O)CN2C(=O)[C@@H](NC(=O)c2cc(F)c(-c3ccc(C4=N[C@@H](C)c5nnc(C)n5-c5sc(C)c(C)c54)cc3)cc2Cl)C(C)(C)C)cc1` [Example 204, (2S,4R)-1-[(2S)-2-({5-chloro-2-fluoro-4′-[(6S)-2,3,6,9-tetramethyl-6H-thieno[3,2-f][1,2,4]triazolo[4,3-a] [1,4]diazepin-4-yl][1,1′-biphenyl]-4-carbonyl}amino)-3,3-dimethylbutanoyl]-4-hydroxy-N-{(1S)-1-[4-(4-methyl-1,3-thiazol-5-yl)phenyl]ethyl}pyrrolidine-2-carboxamide], in that order: 0.32 nM and 0.51 nM.
`CNC(=O)C[C@@H]1N=C(c2ccc(-c3ccc(C(=O)N[C@H](C(=O)N4C[C@H](O)C[C@H]4C(=O)N[C@@H](C)c4ccc(-c5scnc5C)cc4)C(C)(C)C)cc3F)cc2)c2c(sc(C)c2C)-n2c(C)nnc21` [Example 206, (2S,4R)-1-{(2S)-2-[(2-fluoro-4′-{(6S)-2,3,9-trimethyl-6-[2-(methylamino)-2-oxoethyl]-6H-thieno[3,2-f] [1,2,4]triazolo[4,3-a][1,4]diazepin-4-yl}[1,1′-biphenyl]-4-carbonyl)amino]-3,3-dimethylbutanoyl}-4-hydroxy-N-{(1S)-1-[4-(4-methyl-1,3-thiazol-5-yl)phenyl]ethyl}pyrrolidine-2-carboxamide]: the half-maximal inhibitory concentration (IC50) in experiment [1] was determined as 0.68 nM. At BRD4 protein, this compound came in with a DC50 of 0.73 nM.
For `Cc1ncsc1-c1ccc([C@H](C)NC(=O)[C@@H]2C[C@@H](O)CN2C(=O)[C@@H](NC(=O)c2ccc(-c3ccc(C4=N[C@@H](CC(=O)N(C)C)c5nnc(C)n5-c5sc(C)c(C)c54)cc3)c(F)c2)C(C)(C)C)cc1` [Example 207, (2S,4R)-1-{(2S)-2-[(4′-{(6S)-6-[2-(dimethylamino)-2-oxoethyl]-2,3,9-trimethyl-6H-thieno [3,2-f][1,2,4]triazolo [4,3-a] [1,4]diazepin-4-yl}-2-fluoro [1,1′-biphenyl]-4-carbonyl)amino]-3,3-dimethylbutanoyl}-4-hydroxy-N-{(1S)-1-[4-(4-methyl-1,3-thiazol-5-yl)phenyl]ethyl}pyrrolidine-2-carboxamide], in that order: 0.43 nM and 0.62 nM.
Regarding `COC(=O)C[C@@H]1N=C(c2ccc(-c3ccc(C(=O)N[C@H](C(=O)N4C[C@H](O)C[C@H]4C(=O)N[C@@H](C)c4ccc(-c5scnc5C)cc4)C(C)(C)C)cc3)cc2)c2c(sc(CO)c2C)-n2c(C)nnc21` [Example 209, methyl {(6S)-2-(hydroxymethyl)-4-[4′-({(2S)-1-[(2S,4R)-4-hydroxy-2-({(1S)-1-[4-(4-methyl-1,3-thiazol-5-yl)phenyl]ethyl}carbamoyl)pyrrolidin-1-yl]-3,3-dimethyl-1-oxobutan-2-yl}carbamoyl)[1,1′-biphenyl]-4-yl]-3,9-dimethyl-6H-thieno[3,2-f][1,2,4]triazolo[4,3-a][1,4]diazepin-6-yl}acetate], in experiment [1], the IC50 was determined as 0.24 nM. At BRD4 protein, this compound yielded a 50% degradation concentration (DC50) of 0.32 nM.
